For data set [1], the target named is Serine protease 1 (Homo sapiens, UniProt P07477). The data set can be described thus: Binding affinity towards trypsin was evaluated.
The target in data set [2] is Prothrombin (Homo sapiens, UniProt P00734). The experiment in a line: Binding affinity towards thrombin was evaluated.
The subject of data set [3] is Rattus norvegicus. The experiment in a line: Incidence of occlusion was determined in the rat ferric chloride arterial thrombosis model at 5 dose ug/kg/min after intravenous administration; 1/6. It counts as functional.
Data set [4] deals with Rattus norvegicus. The experiment in a line: Incidence of occlusion was determined in the rat ferric chloride arterial thrombosis model at 3 dose ug/kg/min after intravenous administration; 2/6. It is filed as functional.
For data set [5], the system named is Rattus norvegicus. The data set can be described thus: Incidence of occlusion was determined in the rat ferric chloride arterial thrombosis model at 10 dose ug/kg/min after intravenous administration; 0/9. It is filed as functional.
Data set [6] concerns Rattus norvegicus. The data set can be described thus: Incidence of occlusion was determined in the rat ferric chloride arterial thrombosis model at 1 dose ug/kg/min after intravenous administration; 5/6. It is filed as functional.
Data set [7] can be described thus: Compound was evaluated for the oral bioavailability after oral administration in dog. Conditions: in vivo, read-out: Bioavailabiility. It is filed as ADME, organism-based, Canis lupus familiaris.
The nature of data set [8]: Compound was evaluated for the half life period after iv administration in cynomolgus monkey. It is filed as ADME, organism-based. As to conditions: cercopithecidae, in vivo.
Data set [9] is described as follows: Compound was evaluated for the half life period after iv administration in Beagle dog. It is filed as ADME, organism-based, Canis lupus familiaris. Conditions: in vivo.
Data set [10] is described as follows: Maximum concentration was evaluated after 75 min after administration in dog. It is filed as ADME, organism-based, Canis lupus familiaris. Conditions: in vivo.
Data set [11] is described as follows: Oral bioavailability after 5 mg/kg in cynomolgus monkey was determined. It is filed as ADME, organism-based. As to conditions: cercopithecidae, in vivo, read-out: Bioavailabiility.

Serine protease 1, sequence (P07477 whole entry): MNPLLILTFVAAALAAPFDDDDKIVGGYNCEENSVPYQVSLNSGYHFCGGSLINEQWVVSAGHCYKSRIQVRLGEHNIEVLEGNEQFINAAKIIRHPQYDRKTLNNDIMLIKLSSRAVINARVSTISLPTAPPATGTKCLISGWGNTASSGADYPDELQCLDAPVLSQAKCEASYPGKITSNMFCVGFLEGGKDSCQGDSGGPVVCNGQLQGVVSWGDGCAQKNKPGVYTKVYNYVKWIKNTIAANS

In general, Ki refers to the dissociation constant of the complex between target and ligand, obtained from inhibition or displacement. Take `Cc1cc(N)ncc1CNC(=O)Cn1c(C)ccc(NS(=O)(=O)Cc2ccccc2)c1=O`: the Ki was 1500 nM in [1] and 12 nM in [2].

As for `Cc1cc(N)nc(C)c1CNC(=O)Cn1c(C)ccc(NS(=O)(=O)Cc2ccccc2)c1=O`, the Ki in data set [1] came to 2100 nM; in data set [2], 0.33 nM.

In the case of `Cc1nc(N)ccc1CNC(=O)Cn1c(C)ccc(NS(=O)(=O)Cc2ccccc2)c1=O` [L-374087], the Incidence of occlusion in [3] amounted to 1; in data set [4], 2; in [5], 0; in data set [6], 5.

For `Cc1nc(N)ccc1CNC(=O)Cn1cccc(NS(=O)(=O)Cc2ccccc2)c1=O`, the Ki in data set [1] stood at 20000 nM; in data set [2], 26 nM.

Usually half-life stands for how long it takes for the measured level to halve. In general, Cmax refers to the peak of the concentration-time curve. Regarding `Cc1nc(N)ccc1CNC(=O)Cn1c(C)ccc(NS(=O)(=O)Cc2ccccc2)c1=O.Cl`, the bioavailability is 44% in data set [7] and 19% in [11]. Further, the figures for the half-life in data set [8] and in data set [9] were 2.42 h and 1.5 h, respectively. In [10], this compound registered a Cmax of 990 nM.

On to `Cc1nc(N)ccc1CNC(=O)Cn1c(C)ccc(NCCc2ccccc2)c1=O`, for which the results for the Ki in [1] and in data set [2] were 4300 nM and 2.3 nM, respectively.

Regarding `Cc1ccc(NS(=O)(=O)Cc2ccccc2)c(=O)n1CC(=O)NCc1ccc(N)nc1`, the Ki is 3000 nM in data set [1] and 11 nM in [2].
